One test concerns the target T1, Human Axl (Homo sapiens, UniProt P30530).
T1 construct: Human AXL (residues 464-885)
T1 sequence (P30530 1-894 Q764R): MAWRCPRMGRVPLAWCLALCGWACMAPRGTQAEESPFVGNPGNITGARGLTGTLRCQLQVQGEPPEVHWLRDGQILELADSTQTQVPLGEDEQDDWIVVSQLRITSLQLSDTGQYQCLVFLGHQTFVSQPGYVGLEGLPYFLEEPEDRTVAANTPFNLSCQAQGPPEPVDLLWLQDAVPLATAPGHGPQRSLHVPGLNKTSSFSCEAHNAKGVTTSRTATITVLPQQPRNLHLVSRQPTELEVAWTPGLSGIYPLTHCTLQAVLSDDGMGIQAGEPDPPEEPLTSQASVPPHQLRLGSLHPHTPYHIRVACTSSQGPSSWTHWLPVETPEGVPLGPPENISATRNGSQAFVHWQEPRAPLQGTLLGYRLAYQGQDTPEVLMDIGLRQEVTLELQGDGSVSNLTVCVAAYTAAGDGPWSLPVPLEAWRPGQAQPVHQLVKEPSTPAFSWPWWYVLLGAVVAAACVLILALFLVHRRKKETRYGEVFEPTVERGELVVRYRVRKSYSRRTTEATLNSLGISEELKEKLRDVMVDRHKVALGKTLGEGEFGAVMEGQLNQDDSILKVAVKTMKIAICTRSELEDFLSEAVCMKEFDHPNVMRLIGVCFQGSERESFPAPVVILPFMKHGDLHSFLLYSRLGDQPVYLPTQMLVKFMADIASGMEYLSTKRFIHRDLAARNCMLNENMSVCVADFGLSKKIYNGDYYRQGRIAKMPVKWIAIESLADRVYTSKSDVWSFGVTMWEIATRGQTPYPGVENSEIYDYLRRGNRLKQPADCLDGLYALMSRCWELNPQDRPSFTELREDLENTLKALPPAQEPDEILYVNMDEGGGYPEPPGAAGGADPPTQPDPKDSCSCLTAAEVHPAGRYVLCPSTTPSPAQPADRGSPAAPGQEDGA
Put plainly: Human AXL kinase assay (33P radiometric / HTRF KinEase). The conditions noted are these: protocols of Examples A-1 and/or A-2. It is filed as biochemical. (Time-resolved FRET reads energy transfer from a long-lived donor to a nearby acceptor.)

Another test has as its target T2, Human KDR (Homo sapiens, UniProt P35968).
T2 construct: Human KDR (residues K790-V1356, 55 nM); purchased Eurofins Pharma Discovery Services UK Limited (KinaseProfiler, B-1) and/or CarnaBio (B-2)
Put plainly: Human KDR kinase assay (33P radiometric / HTRF KinEase). Format: biochemical. The conditions noted are these: protocols of Examples B-1 and/or B-2. The procedure, abridged: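 Radiometric: KDR K790-V1356 (55 nM), MOPS pH 7.0, myelin basic protein, 10 μM [γ-33P]ATP, 40 min at room temperature, filter-bound 33P counted; nine half-log doses, top 1 μM. HTRF: KDR 790-1356, 1 μM biotinylated peptide, ATP at Km (4.0 μM), 40 min, 10 doses. IC50 from logistic fits.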

pIC50: −log10 of the molar value.

T2 sequence (P35968 790-1356): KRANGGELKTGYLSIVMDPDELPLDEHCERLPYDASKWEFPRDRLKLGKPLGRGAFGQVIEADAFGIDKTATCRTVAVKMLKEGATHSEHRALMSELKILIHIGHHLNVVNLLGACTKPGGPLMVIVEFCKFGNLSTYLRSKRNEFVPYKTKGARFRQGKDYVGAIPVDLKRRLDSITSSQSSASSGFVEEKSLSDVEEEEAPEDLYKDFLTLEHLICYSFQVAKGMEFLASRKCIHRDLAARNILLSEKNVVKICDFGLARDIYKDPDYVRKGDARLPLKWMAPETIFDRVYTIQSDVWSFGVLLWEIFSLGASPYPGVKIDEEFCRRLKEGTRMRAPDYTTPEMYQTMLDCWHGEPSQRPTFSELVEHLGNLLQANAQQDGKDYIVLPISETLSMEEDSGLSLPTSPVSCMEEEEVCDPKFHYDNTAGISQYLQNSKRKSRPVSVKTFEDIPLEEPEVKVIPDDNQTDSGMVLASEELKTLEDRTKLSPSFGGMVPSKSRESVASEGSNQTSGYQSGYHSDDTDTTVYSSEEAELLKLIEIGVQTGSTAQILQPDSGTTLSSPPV

`COc1cc2nccc(Oc3ccc(NC(=O)c4cnc(C)c(/C=C/C(C)(C)C)c4O)cc3F)c2nc1OC` [Compound 27, N-[4-[(6,7-Dimethoxy-1,5-naphthyridin-4-yl)oxy]-3-fluorophenyl]-5-[(E)-3,3-dimethylbut-1-enyl]-4-hydroxy-6-methylpyridine-3-carboxamide]: the pIC50 against Human Axl and on Human KDR was at least 7.00 in each case.
Turning to `COc1cc2nccc(Oc3ccc(NC(=O)c4cnc(C)c(/C=C/CC(C)C)c4O)cc3F)c2nc1OC` [Compound 28, N-[4-[(6,7-Dimethoxy-1,5-naphthyridin-4-yl)oxy]-3-fluorophenyl]-4-hydroxy-6-methyl-5-[(E)-4-methylpent-1-enyl]pyridine-3-carboxamide], the negative logarithm of the IC50 (pIC50) against Human Axl and on Human KDR was at least 7.00 in each case.
For the compound `COc1cc2nccc(Oc3ccc(NC(=O)c4cnc(C)c(/C=C/CC(C)C)c4O)cc3F)c2cc1OC` [Compound 29, N-[4-(6,7-Dimethoxyquinolin-4-yl)oxy-3-fluorophenyl]-4-hydroxy-6-methyl-5-[(E)-4-methylpent-1-enyl]pyridine-3-carboxamide], the negative-log IC50 (pIC50) against Human Axl and against Human KDR was at least 7.00 throughout.
On to `COc1cc2nccc(Oc3ccc(NC(=O)c4cnc(C)c(/C=C/C(C)(C)C)c4O)cc3F)c2cc1OC` [Compound 30, N-[4-(6,7-Dimethoxyquinolin-4-yl)oxy-3-fluorophenyl]-5-[(E)-3,3-dimethylbut-1-enyl]-4-hydroxy-6-methylpyridine-3-carboxamide], for which the pIC50 on Human Axl and against Human KDR was at least 7.00 each time.
As for `COc1cc2nccc(Oc3ccc(NC(=O)c4c(C)nc(C)c(C(C)C)c4O)cc3F)c2nc1OC` [Compound 31, N-[4-[(6,7-Dimethoxy-1,5-naphthyridin-4-yl)oxy]-3-fluorophenyl]-4-hydroxy-2,6-dimethyl-5-propan-2-ylpyridine-3-carboxamide], the pIC50 on Human Axl and against Human KDR was at least 7.00 each time.
Regarding `COc1cnc2c(Oc3ccc(NC(=O)c4c(C)nc(C)c(C(C)C)c4O)cc3F)ccnc2c1` [Compound 32, N-[3-Fluoro-4-[(7-methoxy-1,5-naphthyridin-4-yl)oxy]phenyl]-4-hydroxy-2,6-dimethyl-5-propan-2-ylpyridine-3-carboxamide], the pIC50 at Human Axl and against Human KDR was at least 7.00 throughout.
With `COCCOc1cc2nccc(Oc3ccc(NC(=O)c4cnc(C)c(C5=CCCC5)c4O)cc3F)c2nc1OC` [Compound 33, 5-(Cyclopenten-1-yl)-N-[3-fluoro-4-[[6-methoxy-7-(2-methoxyethoxy)-1,5-naphthyridin-4-yl]oxy]phenyl]-4-hydroxy-6-methylpyridine-3-carboxamide], the pIC50 on Human Axl and on Human KDR was at least 7.00 in each case.
As for `COCCOc1cc2nccc(Oc3ccc(NC(=O)c4cnc(C)c(C5=CCCCC5)c4O)cc3F)c2nc1OC` [Compound 34, 5-(Cyclohexen-1-yl)-N-[3-fluoro-4-[[6-methoxy-7-(2-methoxyethoxy)-1,5-naphthyridin-4-yl]oxy]phenyl]-4-hydroxy-6-methylpyridine-3-carboxamide], the pIC50 on Human Axl and on Human KDR was at least 7.00 in each case.
Regarding `COCCOc1cc2nccc(Oc3ccc(NC(=O)c4cnc(C)c(C5=CCOCC5)c4O)cc3F)c2nc1OC` [Compound 35, 5-(3,6-Dihydro-2H-pyran-4-yl)-N-[3-fluoro-4-[[6-methoxy-7-(2-methoxyethoxy)-1,5-naphthyridin-4-yl]oxy]phenyl]-4-hydroxy-6-methylpyridine-3-carboxamide], the pIC50 at Human Axl and at Human KDR was at least 7.00 each time.
On to `COCCOc1cc2nccc(Oc3ccc(NC(=O)c4cnc(C)c(/C=C/C5CCCC5)c4O)cc3F)c2nc1OC` [Compound 36, 5-[(E)-2-Cyclopentylethenyl]-N-[3-fluoro-4-[[6-methoxy-7-(2-methoxyethoxy)-1,5-naphthyridin-4-yl]oxy]phenyl]-4-hydroxy-6-methylpyridine-3-carboxamide], for which the negative-log IC50 (pIC50) at Human Axl and on Human KDR was at least 7.00 each time.
Regarding `COCCOc1cc2nccc(Oc3ccc(NC(=O)c4cnc(C)c(/C=C/C5CC5)c4O)cc3F)c2nc1OC` [Compound 37, 5-[(E)-2-Cyclopropylethenyl]-N-[3-fluoro-4-[[6-methoxy-7-(2-methoxyethoxy)-1,5-naphthyridin-4-yl]oxy]phenyl]-4-hydroxy-6-methylpyridine-3-carboxamide], the negative logarithm of the IC50 (pIC50) on Human Axl and against Human KDR was at least 7.00 throughout.
In the case of `COc1cc2nccc(Oc3ccc(NC(=O)c4c(C)ccn(C(C)C)c4=O)cc3F)c2nc1OC` [Compound 38, N-[4-[(6,7-Dimethoxy-1,5-naphthyridin-4-yl)oxy]-3-fluorophenyl]-4-methyl-2-oxo-1-propan-2-ylpyridine-3-carboxamide], the pIC50 on Human Axl and against Human KDR was 6.52 to 7.00 throughout.
For `COc1cc2nccc(Oc3ccc(NC(=O)c4c(C)ccn(C(C)C)c4=O)cc3)c2nc1OC` [Compound 39, N-[4-[(6,7-Dimethoxy-1,5-naphthyridin-4-yl)oxy]phenyl]-4-methyl-2-oxo-1-propan-2-ylpyridine-3-carboxamide], the pIC50 against Human Axl and against Human KDR was under 6.52 throughout.
In the case of `COCCOc1cc2nccc(Oc3ccc(NC(=O)c4cnc(C)c(/C=C/C(C)(C)C)c4O)cc3F)c2nc1OC` [Compound 40, 5-[(E)-3,3-Dimethylbut-1-enyl]-N-[3-fluoro-4-[[6-methoxy-7-(2-methoxyethoxy)-1,5-naphthyridin-4-yl]oxy]phenyl]-4-hydroxy-6-methylpyridine-3-carboxamide], the pIC50 against Human Axl and on Human KDR was at least 7.00 throughout.
With `COCCOc1cc2nccc(Oc3ccc(NC(=O)c4c(C)nc(C)c(C5=CCCC5)c4O)cc3F)c2nc1OC` [Compound 41, 5-(Cyclopenten-1-yl)-N-[3-fluoro-4-[[6-methoxy-7-(2-methoxyethoxy)-1,5-naphthyridin-4-yl]oxy]phenyl]-4-hydroxy-2,6-dimethylpyridine-3-carboxamide], the pIC50 at Human Axl and against Human KDR was at least 7.00 each time.
Consider `COCCOc1cc2nccc(Oc3ccc(NC(=O)c4c(C)n(C)c(C)c(C5=CCCC5)c4=O)cc3F)c2nc1OC` [Compound 42, 5-(Cyclopenten-1-yl)-N-[3-fluoro-4-[[6-methoxy-7-(2-methoxyethoxy)-1,5-naphthyridin-4-yl]oxy]phenyl]-1,2,6-trimethyl-4-oxopyridine-3-carboxamide], for which the negative-log IC50 (pIC50) against Human Axl and against Human KDR was at least 7.00 each time.
As to `COCCOc1cc2nccc(Oc3ccc(NC(=O)c4c(C)nc(C)c(C5=CCOCC5)c4O)cc3F)c2nc1OC` [Compound 43, 5-(3,6-Dihydro-2H-pyran-4-yl)-N-[3-fluoro-4-[[6-methoxy-7-(2-methoxyethoxy)-1,5-naphthyridin-4-yl]oxy]phenyl]-4-hydroxy-2,6-dimethylpyridine-3-carboxamide], the negative logarithm of the IC50 (pIC50) against Human Axl and on Human KDR was at least 7.00 throughout.
Regarding `COCCOc1cc2nccc(Oc3ccc(NC(=O)c4c(O)c(C5=CCOCC5)c(C)[n+](C)c4C)cc3F)c2nc1OC` [Compound 44, 5-(3,6-Dihydro-2H-pyran-4-yl)-N-[3-fluoro-4-[[6-methoxy-7-(2-methoxyethoxy)-1,5-naphthyridin-4-yl]oxy]phenyl]-1,2,6-trimethyl-4-oxopyridine-3-carboxamide], the negative-log IC50 (pIC50) (in general, the negative decadic logarithm of the IC50, by convention in mol/L) is at least 7.00 on Human Axl and 6.52 to 7.00 on Human KDR.
The matching figures for `COCCOc1cc2nccc(Oc3ccc(NC(=O)c4c(C)n(C)c(C)c(/C=C/C(C)(C)C)c4=O)cc3F)c2nc1OC` [Compound 45, 5-[(E)-3,3-Dimethylbut-1-enyl]-N-[3-fluoro-4-[[6-methoxy-7-(2-methoxyethoxy)-1,5-naphthyridin-4-yl]oxy]phenyl]-1,2,6-trimethyl-4-oxopyridine-3-carboxamide]: at least 7.00 and at least 7.00.
The matching figures for `COc1cc2nccc(Oc3ccc(NC(=O)c4c(C)n(C)c(C)c(C5CC5)c4=O)cc3F)c2nc1OC` [Compound 46, 5-Cyclopropyl-N-[4-[(6,7-dimethoxy-1,5-naphthyridin-4-yl)oxy]-3-fluorophenyl]-1,2,6-trimethyl-4-oxopyridine-3-carboxamide]: 6.52 to 7.00 and under 6.52.

The record behind these values is patent publication US20240158393A1, “PYRIDONE COMPOUNDS AND METHODS OF USE” (Exelixis, Inc., priority 2021, published 2024).
